Laboratory results taken from patent US20130029334A1, “mRNA As Biomarkers For Liver Injury or Other Liver Perturbations” (priority 2010, published 2013).
Values joined by “and” are separate entries in the source; they are usually repeats but may differ in a detail not shown here. Equal entries are not always repeated.

Tests used:
[1] = tested on: rats; conditions: rat, in vivo
Procedure: In this example, to model a drug causing liver perturbation (such as injury or hepatotoxicity), hepatotoxicant D-galactosamine (“DGAL”) was administered to rats. Male Sprague-Dawley rats were administered DGAL at 0 (sterile PBS) or 1000 mg/kg intraperitoneally, and sacrificed after 24 hours. […] Blood was harvested from DGAL-treated rats, and serum liver enzymes were measured using a standard laboratory assay.
In this example, to exemplify a drug causing liver injury, drug acetaminophen (“APAP”) was administered to rats. Rats were administered APAP at 0, 100, 700, and 1400 mg/kg by gavage, and then sacrificed at 6, 24 or 48 hours after treatment. Hematoxylin and eosin-stained liver sections were examined by an accredited pathologist and scored for incidence and severity of hepatocellular necrosis.
Using methods described previously herein, liver enzymes including serum ALT and AST levels, and plasma mRNA levels, were also assessed to determine hepatotoxicity following APAP administration.
Rats were treated with skeletal muscle toxicant bupivacaine (“BPVC”). For BPVC treatment, rats were administered 0.5 mL sterile saline or 0.5% w/v sterile solution of BPVC in saline once into both the right and left tibialis anterior muscles. […] To compare the specificity of circulating liver mRNAs with AST and ALT following skeletal muscle injury, rats were treated with BPVC, and then serum enzymes and circulating liver mRNAs were measured 24 hours after treatment.

[2] = tested on: rats; assay: Alb, Fgb, Hp mRNA expression in liver of treated rats (FIG. 2); type: in vivo, rat; conditions: DGAL-treated rats
Procedure: FIG. 2 is a graph showing a log2 fold change in expression of Alb, Fgb, and Hp mRNA (detected as cDNA), respectively, in liver of rats treated with DGAL, or with acetaminophen (APAP), as compared to references values determined from rats not treated with DGAL (Control; solid black boxes) or APAP (Control; solid black boxes), respectively.
At 48 hours, Hp mRNA levels were increased by 9, 54 and 86 fold over controls, respectively, at 100, 700, and 1400 mg/kg APAP; while Alb mRNA levels were increased by 13 and 31 fold at 700 and 1400 mg/kg.

[3] = tested on: rats; assay: Whole genome microarray analysis of plasma mRNA of treated rats; type: in vivo, rat; conditions: DGAL 1000 mg/kg ip, 24 h
Source text: In this example, illustrated is whole genome microarray analysis, which can be used to reveal treatment-specific transcriptomic profiles following liver injury or liver enzyme induction. […] Total RNA was isolated from the 14,000×g plasma pellet from rats treated with DGAL or APAP. […] Next, this fragmented product was labeled via enzymatic attachment of a biotin-labeled nucleotide that contained an indicator molecule comprising a fluorophore. After this labeled cDNA was hybridized and bound to the oligonucleotides on the microarray, any unbound cDNA was washed away and the microarrays were scanned. During this process, the microarray chips were scanned at a wavelength that allowed the indicator molecule to fluoresce (the excitation wavelength). The level of mRNA biomarker was determined from the level of fluorescence (e.g., correlating to the amount of labeled cDNA hybridized to the microarray) using standard techniques. Data on measurement of mRNA biomarkers (which also may be representative of gene expression induced as a result of liver perturbation) was preprocessed using GC-RMA and log2-transformed. The probe-level microarray data was checked for quality using various graphical and statistical means. Arrays showing low quality RNA or poor amplification were excluded from the analysis. To evaluate the ability of whole genome microarray analysis using plasma mRNA to discriminate between DGAL- and APAP-induced liver perturbation, a one-way analysis of variance and individual t-tests were then used to identify which individual mRNA biomarkers were statistically altered between the two treatment groups. A false-discovery rate correction was used for multiple comparisons. Analysis software was utilized to identify networks of interacting genes and other functional groups using gene lists generated.

Structure (SMILES): CCCCN1CCCCC1C(=O)Nc1c(C)cccc1C (stereo not drawn) [BPVC, bupivacaine]
- ALT [1]: 73.70 ± 4.69 U/L
- AST [1]: 368.25 ± 31.81 U/L
- elevation in serum ALT [1]: 1.96 ×
- elevation in serum AST [1]: 3.58 ×

Structure (SMILES): N[C@H]1C(O)O[C@H](CO)[C@H](O)[C@@H]1O (stereo partly drawn) [DGAL, D-(+)-galactosamine]
- expression of Alb mRNA in liver [2]: small but statistically insignificant decrease
- expression of Fgb mRNA in liver [2]: significant decrease
- expression of Hp mRNA in liver [2]: significant decrease
- number of mRNA biomarkers differentially expressed ([3]; 2-fold change, false discovery rate <0.05): 804
- Fold increase Aadat ([3]; rat plasma): 3 fold
- Fold increase Apoc2 ([3]; rat plasma): 23 fold
- Fold increase C9 ([3]; rat plasma): 10 fold
- Fold increase Cf1h ([3]; rat plasma): 14 fold
- Fold increase Cfb ([3]; rat plasma): 13 fold
- Fold increase Cfi ([3]; rat plasma): 25 fold
- Fold increase Cyp2a2 ([3]; rat plasma): 15 fold
- Fold increase Cyp2c9 ([3]; rat plasma): 32 fold
- Fold increase Cyp3a2 ([3]; rat plasma): 26 fold
- Fold increase Cyp3a4 ([3]; rat plasma): 26 fold
- Fold increase Cyp4f12 ([3]; rat plasma): 13 fold
- Fold increase F2 ([3]; rat plasma): 14 fold
- Fold increase Fga ([3]; rat plasma): 28 fold
- Fold increase Mettl7b ([3]; rat plasma): Mettl7b (9) fold
- Fold increase Pla2g4a ([3]; rat plasma): 7 fold
- Fold increase Plg ([3]; rat plasma): 17 fold
- Fold increase Serping1 ([3]; rat plasma): 7 fold
- Fold-Change Alb mRNA (first listing) ([3]; rat plasma): 83.32 fold and 83 fold
- Fold-Change Alb mRNA (second listing) ([3]; rat plasma): 77.08 fold
- Fold-Change Ambp mRNA ([3]; rat plasma): 111.24 fold and 111 fold
- Fold-Change Apoa1 mRNA ([3]; rat plasma): 53.34 fold and 53 fold
- Fold-Change Apoc1 mRNA ([3]; rat plasma): 35.57 fold and 36 fold
- Fold-Change Apoc3 mRNA ([3]; rat plasma): 58.09 fold
- Fold-Change Apoh mRNA ([3]; rat plasma): 39.84 fold
- Fold-Change Ccl2 mRNA ([3]; rat plasma): 25.35 fold
- Fold-Change Cyp2c7 mRNA ([3]; rat plasma): 102.92 fold and 103 fold
- Fold-Change Cyp2c13 mRNA ([3]; rat plasma): 40.38 fold and 40 fold
- Fold-Change Fgg mRNA ([3]; rat plasma): 65.02 fold and 65 fold
- Fold-Change Fgl1 mRNA ([3]; rat plasma): 52.04 fold
- Fold-Change G1p2 mRNA ([3]; rat plasma): 5.78 fold
- Fold-Change Gc mRNA ([3]; rat plasma): 42.82 fold
- Fold-Change Gpnmb mRNA ([3]; rat plasma): 4.04 fold
- Fold-Change Itih1 mRNA ([3]; rat plasma): 52.97 fold
- Fold-Change Itih3 mRNA ([3]; rat plasma): 40.88 fold
- Fold-Change Kng1 mRNA ([3]; rat plasma): 45.12 fold
- Fold-Change LOC259245 mRNA ([3]; rat plasma): 11.52 fold
- Fold-Change Lta4h mRNA ([3]; rat plasma): 3.40 fold
- Fold-Change Mt2a mRNA ([3]; rat plasma): 18.20 fold
- Fold-Change Mug1 mRNA ([3]; rat plasma): 108.00 fold
- Fold-Change Obp3 mRNA ([3]; rat plasma): 96.26 fold
- Fold-Change Pgrmc1 mRNA ([3]; rat plasma): 3.12 fold
- Fold-Change Prdx5 mRNA ([3]; rat plasma): 2.03 fold
- Fold-Change Rbp4 mRNA ([3]; rat plasma): 36.82 fold
- Fold-Change Serpina1 mRNA ([3]; rat plasma): 12.61 fold
- Fold-Change Serpina3k mRNA ([3]; rat plasma): 36.42 fold
- Fold-Change Spp2 mRNA ([3]; rat plasma): 34.78 fold
- Fold-Change Ttr mRNA ([3]; rat plasma): 60.61 fold and 61 fold
- Fold-Change Tuba4a mRNA ([3]; rat plasma): 2.24 fold
- Fold-Change Vtn mRNA ([3]; rat plasma): 57.99 fold
